EP0199985A2, “Benzoic-acid derivatives, pharmaceutical preparations comprising them and process for preparing these compounds and pharmaceutical preparations” (Grünenthal GmbH, priority 1985, dated 1986)

Biological target: T1, 5-Lipoxygenase (Rattus norvegicus, UniProt P12527)
T1 construct: basophile leukämische Leukozyten der Ratte in-vitro gezüchtet; endogenous in cells; whole cells suspended in phosphate buffer, stimulated with A 23187
T1 sequence (P12527 1-673): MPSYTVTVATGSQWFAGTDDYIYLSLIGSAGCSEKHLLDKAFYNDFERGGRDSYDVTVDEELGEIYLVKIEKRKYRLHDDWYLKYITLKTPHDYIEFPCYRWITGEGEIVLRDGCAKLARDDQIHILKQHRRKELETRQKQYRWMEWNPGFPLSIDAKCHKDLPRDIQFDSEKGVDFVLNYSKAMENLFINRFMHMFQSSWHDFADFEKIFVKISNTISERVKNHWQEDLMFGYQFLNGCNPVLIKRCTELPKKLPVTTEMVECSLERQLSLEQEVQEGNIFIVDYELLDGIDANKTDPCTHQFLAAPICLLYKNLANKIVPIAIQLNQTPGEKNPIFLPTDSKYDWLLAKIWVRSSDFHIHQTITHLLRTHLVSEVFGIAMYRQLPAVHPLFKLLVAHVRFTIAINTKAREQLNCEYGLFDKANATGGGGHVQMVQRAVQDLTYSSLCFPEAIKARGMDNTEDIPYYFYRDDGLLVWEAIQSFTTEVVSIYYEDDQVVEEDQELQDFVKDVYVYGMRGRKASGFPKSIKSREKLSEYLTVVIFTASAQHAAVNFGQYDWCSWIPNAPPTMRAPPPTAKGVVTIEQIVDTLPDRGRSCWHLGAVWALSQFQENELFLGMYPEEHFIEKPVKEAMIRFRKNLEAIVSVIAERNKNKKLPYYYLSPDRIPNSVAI
Assay: 5-lipoxygenase inhibition in cultured rat basophilic leukemic leukocytes (radiolabelled arachidonic acid, TLC of 5-HETE and LTB4)
Format: cell-based, Ratte
Settings: rat basophilic leukemic leukocytes in 50 mM potassium phosphate buffer pH 7.4; indomethacin 10 µM, CaCl2 2 mM, labelled arachidonic acid + ionophore A 23 187, 5 min, room temperature; formation of 5-HETE and LTB4
Procedure: Zur Ermittlung der 5-Lipoxygenasehemmung wurden basophile leukämische Leukozyten der Ratte in-vitro gezüchtet und nach Erreichen einer Zelldichte von ca. 10^6 Zellen pro ml bei 400 g vom Nährmedium abzentrifugiert. Der Rückstand wurde in 50 mM Kaliumphosphatpuffer vom pH 7,4 so suspendiert, daß die Zellzahl […] Zellen pro ml betrug.
Jeweils 1 ml dieser Suspension wurde mit Indomethacin (10 uM) und Calciumchlorid (2 mM) versetzt und in An-oder Abwesenheit einer der Testsubstanzen mit radioaktiv markierter Arachi- 5 donsäure und dem Calcium-lonophor A 23 187 bei Raumtemperatur für 5 Minuten inkubiert. Nach Ansäuern auf pH 5 wurden die unter dem Einfluß der 5-Lipoxygenase gebildeten Arachidonsäuremetaboliten mit Ethylacetat extrahiert und 10 mit einem für die Leukotriene geeigneten Fließmittelgemisch dünnschichtchromatographisch getrennt [vgl. Jakschik et al. Biochem. Biophys. Res. Commun. 102, 624 (1981)]. Die Radioaktivitätsverteilung auf die verschiedenen Metaboliten 15 wurde mit Hilfe eines Dünnschichtscanners gemessen. Setzt man die prozentualen Bildungsanteile der 5-Lipoxygenaseprodukte (5-HETE und LTB4) zu der Menge bzw. Konzentration der eingesetzten Gesamtradioaktivität bzw. der Testsubstanz 20 der Formel I in Relation, so läßt sich der IC50-Wert-(d. h. die Konzentration, die eine 50 %-ige Hemmung der 5-Lipoxygenase bewirkt) ermitteln.

Structure (SMILES) | IC50 [µM]
CCCCCC(O)/C=C/C#CCC#CCC#Cc1cccc(C(=O)OC)c1 (stereo not drawn) [Beispiel 1, 3-(11'-Hydroxy-hexadec-9'E-en-1',4',7'-triin-1'-yl)-benzoesäuremethylester] | 1.7
COC(=O)c1cccc(C#CCC#CCC#C/C=C/C(O)C2CCCCC2)c1 (stereo not drawn) [Beispiel 4, 3-(11'-Cyclohexyl-11'-hydroxy-undec-9'E-en-1',4',7-triin-1'-yl)-benzoesäuremethylester] | 1.4
CCCCCC(O)/C=C/C=C\C/C=C\C/C=C\c1ccc(C(=O)OC)cc1 (stereo not drawn) [Beispiel 7, 4-(11'-Hydroxy-hexadeca-1'Z,4'Z,7'Z,9'E-tetraen-1'-yl)-benzoesäuremethylester] | 1
CN(O)C(=O)c1ccc(C#CCCCCCCC#CCO)cc1 [Beispiel 11, 4-(11'-Hydroxy-undeca-1',9'-diin-1'-yl)-N-methylbenzhydroxamsäure] | 0.2
CC(=O)ON(C)C(=O)c1cccc(C#CCCCCCCC#CCO)c1 [Beispiel 24l, 3-(11'-Hydroxy-undeca-1',9'-diin-1'-yl)-benzoesäure-(N-methyl-N-acetoxy)-amid] | 0.5
CCCCCNC(=O)c1cccc(C#CCCCCCCC#CCOC(C)=O)c1 [Beispiel 27a, 3-(11 '-Acetoxy-undeca-1',9'-diin-1'-yl)-benzoesäure-n-pentylamid] | 7

Results, then the compound that gave them:

IC50 [µM] | Structure (SMILES)
1 | CN(O)C(=O)c1cccc(C#CCCCCCCC#CCO)c1 [Beispiel 16]
2.3 | O=C(c1cccc(C#CCCCCCCC#CCO)c1)N1CCCCC1 [Beispiel 17, 3-(11 '-Hydroxy-undeca-1',9'-diin-1'-yl)-benzoesäurepiperidid]
7.5 | CCOC(=O)c1cccc(C#CCCCCCCC#CCO)c1 [Beispiel 18, 3-(11 '-Hydroxy-undeca-1',9'-diin-1-yl)-benzoesäureethylester]
0.5 | CN(O)C(=O)c1cccc(C#CCCCCCCC#CC(O)C2CCCCC2)c1 (stereo not drawn) [Beispiel 23biii, 3-(11'-Cyclohexyl-11'-hydroxy-undeca-1',9'-diin-1'-yl)-N-methylbenzhydroxamsäure]
2.4 | CCCN(CCC)C(=O)c1cccc(C#CCCCCCCC#CCO)c1 [Beispiel 24g, 3-(11'-Hydroxy-undeca-1',9'-diin-1'-yl)-benzoesäure-[N,N-di-(n-propyl)]-amid]
1.6 | CC(C)N(C(=O)c1cccc(C#CCCCCCCC#CCO)c1)C(C)C [Beispiel 24n, 3-(11'-Hydroxy-undeca-1',9'-diin-1'-yl)-benzoesäure-[N,N-di-(isopropyl)]-amid]
